Data taken from PubChem BioAssay (NCI).
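GI50 marks 50% less growth. Definition used: TGI = concentration required for complete inhibition of growth.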

How the values were obtained:
Assay in all cases: growth of human tumour cells (NCI), 384-well format; in the data active = GI50 below about 0.43 µM; inactive = the rest
[1] = test system: 786-0 renal
[2] = test system: A498 renal
[3] = test system: A549 NSCLC
[4] = test system: ACHN renal
[5] = test system: BT-549 breast
[6] = test system: CAKI-1 renal
[7] = test system: CCRF-CEM leukemia
[8] = test system: COLO 205 colon
[9] = test system: DU-145 prostate
[10] = test system: EKVX NSCLC
[11] = test system: HCC-2998 colon
[12] = test system: HCT-116 colon
[13] = test system: HCT-15 colon
[14] = test system: HL-60(TB) leukemia
[15] = test system: HOP-62 NSCLC
[16] = test system: HOP-92 NSCLC
[17] = test system: HS 578T breast
[18] = test system: HT29 colon
[19] = test system: IGROV1 ovarian
[20] = test system: K-562 leukemia
[21] = test system: KM12 colon
[22] = test system: LOX IMVI melanoma
[23] = test system: M14 melanoma
[24] = test system: MALME-3M melanoma
[25] = test system: MCF7 breast
[26] = test system: MDA-MB-231 breast
[27] = test system: MDA-MB-435 melanoma
[28] = test system: MDA-MB-468 breast
[29] = test system: MOLT-4 leukemia
[30] = test system: NCI-H226 lung
[31] = test system: NCI-H23 lung
[32] = test system: NCI-H322M lung
[33] = test system: NCI-H460 NSCLC
[34] = test system: NCI-H522 lung
[35] = test system: NCI/ADR-RES ovarian
[36] = test system: OVCAR-3 ovarian
[37] = test system: OVCAR-4 ovarian
[38] = test system: OVCAR-5 ovarian
[39] = test system: OVCAR-8 ovarian
[40] = test system: PC-3 prostate
[41] = test system: RPMI-8226 leukemia
[42] = test system: RXF 393 renal
[43] = test system: SF-268 CNS
[44] = test system: SF-295 CNS
[45] = test system: SF-539 CNS
[46] = test system: SK-MEL-2 melanoma
[47] = test system: SK-MEL-28 melanoma
[48] = test system: SK-MEL-5 melanoma
[49] = test system: SK-OV-3 ovarian
[50] = test system: SN12C renal
[51] = test system: SNB-19 CNS
[52] = test system: SNB-75 CNS
[53] = test system: SR leukemia
[54] = test system: SW-620 colon
[55] = test system: T-47D breast
[56] = test system: TK-10 renal
[57] = test system: U251 glioblastoma
[58] = test system: UACC-257 melanoma
[59] = test system: UACC-62 melanoma

Nc1ccn([C@@H]2C(F)=C(CO)[C@@H](O)[C@H]2O)c(=O)n1
2.59 µM: TGI [7]
13.6 µM: TGI [2]
0.344 µM: TGI [53]
0.338 µM: TGI [29]
13.1 µM: TGI [31]
0.922 µM: TGI [41]
> 23.9 µM: TGI [39]
> 72.1 µM: TGI [42]
4.9 µM: TGI [50]
> 73.1 µM: TGI [4]
> 78.7 µM: TGI [40]
3.96 µM: TGI [8]
> 100 µM: TGI [1] | TGI [5] | TGI [10] | TGI [11] | TGI [13] | TGI [17] | TGI [19] | TGI [20] | TGI [21] | TGI [24] | TGI [25] | TGI [27] | TGI [28] | TGI [30] | TGI [32] | TGI [36] | TGI [37] | TGI [43] | TGI [45] | TGI [46] | TGI [47] | TGI [51] | TGI [52] | TGI [55] | TGI [56] | TGI [57] | TGI [59]
> 96.5 µM: TGI [58]
68.5 µM: TGI [48]
inactive: GI50 [1] 1.09 µM | GI50 [2] 1.51 µM | GI50 [3] 0.461 µM | GI50 [4] 0.923 µM | GI50 [5] 25.4 µM | GI50 [7] 0.825 µM | GI50 [8] 0.775 µM | GI50 [10] 33.5 µM | GI50 [11] 1.71 µM | GI50 [13] 1.09 µM | GI50 [15] 1.26 µM | GI50 [16] 0.745 µM | GI50 [17] 13.4 µM | GI50 [18] 0.922 µM | GI50 [19] 3.95 µM | GI50 [20] 0.474 µM | GI50 [21] 2.14 µM | GI50 [22] 0.791 µM | GI50 [23] 0.763 µM | GI50 [24] 4.43 µM | GI50 [25] 1.02 µM | GI50 [26] 1.32 µM | GI50 [27] 0.967 µM | GI50 [28] 38.4 µM | GI50 [30] 13.5 µM | GI50 [31] 3.07 µM | GI50 [32] 5.74 µM | GI50 [34] 0.539 µM | GI50 [35] 0.882 µM | GI50 [36] 4.47 µM | GI50 [37] 23.5 µM | GI50 [38] 1.02 µM | GI50 [39] 0.704 µM | GI50 [40] 5.23 µM | GI50 [42] 2.34 µM | GI50 [43] 2.7 µM | GI50 [44] 2.84 µM | GI50 [45] 1.61 µM | GI50 [46] 19.8 µM | GI50 [47] 1.25 µM | GI50 [48] 7.7 µM | GI50 [49] 5.57 µM | GI50 [50] 0.5 µM | GI50 [51] 3.37 µM | GI50 [52] 12.3 µM | GI50 [54] 0.893 µM | GI50 [55] 10.7 µM | GI50 [56] 0.689 µM | GI50 [57] 2.78 µM | GI50 [58] 28.2 µM | GI50 [59] 3.87 µM
> 59.6 µM: TGI [49]
> 42.7 µM: TGI [18]
> 35.6 µM: TGI [3]
> 21.2 µM: TGI [23]
> 92.8 µM: TGI [44]
4.3 µM: TGI [35]
1.81 µM: TGI [9]
active: GI50 [6] 0.383 µM | GI50 [9] 0.396 µM | GI50 [12] 0.409 µM | GI50 [14] 0.374 µM | GI50 [29] 0.182 µM | GI50 [33] 0.361 µM | GI50 [41] 0.292 µM | GI50 [53] 0.183 µM
> 28.3 µM: TGI [38]
0.979 µM: TGI [14]
5.65 µM: TGI [16]
> 93.8 µM: TGI [26]
5.46 µM: TGI [33]
31.5 µM: TGI [15]
> 50.7 µM: TGI [54]
12 µM: TGI [22]
57.3 µM: TGI [34]
21.4 µM: TGI [12]
